Results reported in ChEMBL document CHEMBL6083262, “Stereorandomized Oncocins with Preserved Ribosome Binding and Antibacterial Activity” (J Med Chem, 2024).
≈ marks a conversion by molar mass, not a printed value. Calls of active or inactive are those of the source. No cut-off for these calls is given here. Non-standard residues stand in square brackets, D forms with d. Residues, ends and D or L forms follow the SMILES beside them. ξ: configuration not given here. ξY = NC(Cc1ccc(O)cc1)C(=O)O; ξR = N=C(N)NCCCC(N)C(=O)O; ξD = NC(CC(=O)O)C(=O)O; ξN = NC(=O)CC(N)C(=O)O; ξI = CCC(C)C(N)C(=O)O; ξL = CC(C)CC(N)C(=O)O; ξK = NCCCCC(N)C(=O)O; ξV = CC(C)C(N)C(=O)O; ξP = O=C(O)C1CCCN1

What was measured:
Escherichia coli [1] = experiment: Antimicrobial activity against Escherichia coli W3110 incubated for 16 to 20 hrs in 12.5 % muller hinton medium by broth microdilution method; assay type: functional; details: time 16-20 hrs
Pseudomonas aeruginosa [2] = experiment: Antimicrobial activity against Pseudomonas aeruginosa PAO1 incubated for 16 to 20 hrs in full muller hinton medium by broth microdilution method; assay type: functional; details: time 16-20 hrs
[3] = Hemolytic activity in human RBC incubated for 4 hrs; assay type: toxicity, cell-based; details: erythrocyte
Staphylococcus aureus [4] = experiment: Antimicrobial activity against methicillin-resistant Staphylococcus aureus COL incubated for 16 to 20 hrs in full muller hinton medium by broth microdilution method; assay type: functional; details: time 16-20 hrs
Acinetobacter baumannii = experiment: Antimicrobial activity against Acinetobacter baumannii ATCC 19606 incubated for 16 to 20 hrs in 12.5 % muller hinton medium by broth microdilution method; assay type: functional; details: time 16-20 hrs
Escherichia coli [5] = experiment: Antimicrobial activity against Escherichia coli W3110 incubated for 16 to 20 hrs in full muller hinton medium by broth microdilution method; assay type: functional; details: time 16-20 hrs
Pseudomonas aeruginosa [6] = experiment: Antibacterial activity against multidrug-resistant Pseudomonas aeruginosa PA14 incubated for 16 to 20 hrs in full muller hinton medium by broth microdilution method; assay type: functional; details: time 16-20 hrs
Pseudomonas aeruginosa [7] = experiment: Antibacterial activity against multidrug-resistant Pseudomonas aeruginosa PA14 4.18 harboring pmrB mutant incubated for 16 to 20 hrs in full muller hinton medium by broth microdilution method; assay type: functional; details: time 16-20 hrs
Pseudomonas aeruginosa [8] = experiment: Antibacterial activity against multidrug-resistant Pseudomonas aeruginosa clinical isolate ZEM-1A incubated for 16 to 20 hrs in 12.5 % muller hinton medium by broth microdilution method; assay type: functional; details: time 16-20 hrs
rRNA = experiment: Binding affinity to [gamma32 P-ATP] labeled Escherichia coli MG1655 23S ribosomal RNA (5-CCCTTGGGACCTACTTC-3') at U2506 position assessed as increase in band intensity at 1 uM incubated for 2.5 hrs in full muller hinton medium by CMCT based gel electrophoresis; assay type: nucleic-acid assay
Pseudomonas aeruginosa [9] = experiment: Antibacterial activity against multidrug-resistant Pseudomonas aeruginosa PA14 4.13 harboring phoQ mutant incubated for 16 to 20 hrs in full muller hinton medium by broth microdilution method; assay type: functional; details: time 16-20 hrs
Pseudomonas aeruginosa [10] = experiment: Antibacterial activity against multidrug-resistant Pseudomonas aeruginosa clinical isolate ZEM-1A incubated for 16 to 20 hrs in full muller hinton medium by broth microdilution method; assay type: functional; details: time 16-20 hrs
Staphylococcus aureus [11] = experiment: Antimicrobial activity against methicillin-resistant Staphylococcus aureus COL incubated for 16 to 20 hrs in 12.5 % muller hinton medium by broth microdilution method; assay type: functional; details: time 16-20 hrs
Klebsiella pneumoniae [12] = experiment: Antimicrobial activity against Klebsiella pneumoniae NCTC 418 incubated for 16 to 20 hrs in full muller hinton medium by broth microdilution method; assay type: functional; details: time 16-20 hrs
Pseudomonas aeruginosa [13] = experiment: Antibacterial activity against multidrug-resistant Pseudomonas aeruginosa clinical isolate ZEM9A incubated for 16 to 20 hrs in full muller hinton medium by broth microdilution method; assay type: functional; details: time 16-20 hrs
Pseudomonas aeruginosa [14] = experiment: Antimicrobial activity against Pseudomonas aeruginosa PAO1 incubated for 16 to 20 hrs in 12.5 % muller hinton medium by broth microdilution method; assay type: functional; details: time 16-20 hrs
Klebsiella pneumoniae [15] = experiment: Antibacterial activity against multidrug-resistant Klebsiella pneumoniae clinical isolate OXA-48 incubated for 16 to 20 hrs in 12.5 % muller hinton medium by broth microdilution method; assay type: functional; details: time 16-20 hrs
Enterobacter cloacae = experiment: Antibacterial activity against multidrug-resistant Enterobacter cloacae incubated for 16 to 20 hrs in full muller hinton medium by broth microdilution method; assay type: functional; details: time 16-20 hrs
Klebsiella pneumoniae [16] = experiment: Antimicrobial activity against Klebsiella pneumoniae NCTC 418 incubated for 16 to 20 hrs in 12.5 % muller hinton medium by broth microdilution method; assay type: functional; details: time 16-20 hrs
Klebsiella pneumoniae [17] = experiment: Antibacterial activity against multidrug-resistant Klebsiella pneumoniae clinical isolate OXA-48 incubated for 16 to 20 hrs in full muller hinton medium by broth microdilution method; assay type: functional; details: time 16-20 hrs
Pseudomonas aeruginosa [18] = experiment: Antibacterial activity against multidrug-resistant Pseudomonas aeruginosa PA14 2P4 harboring pmrB mutant incubated for 16 to 20 hrs in full muller hinton medium by broth microdilution method; assay type: functional; details: time 16-20 hrs
Escherichia coli [19] = experiment: Bacteriostatic activity against Escherichia coli at 8 times MIC in full muller hinton medium by Time-kill assay; assay type: functional, organism-based
Escherichia coli [20] = experiment: Bacteriostatic activity against Escherichia coli assessed as detachment of inner membrane from outer membrane by measuring a large void at 8 times MIC in full muller hinton medium by transmission electron microscopic analysis; assay type: functional, organism-based
Klebsiella pneumoniae [21] = experiment: Bacteriostatic activity against Klebsiella pneumoniae assessed as small intracellular vesicles at 8 times MIC in full muller hinton medium by transmission electron microscopic analysis; assay type: functional, organism-based
Escherichia coli [22] = experiment: Bacteriostatic activity against Escherichia coli assessed as small intracellular vesicles at 8 times MIC in full muller hinton medium by transmission electron microscopic analysis; assay type: functional, organism-based
Klebsiella pneumoniae [23] = experiment: Bacteriostatic activity against Klebsiella pneumoniae assessed as membrane perturbation at 8 times MIC in full muller hinton medium by transmission electron microscopic analysis; assay type: functional, organism-based
Klebsiella pneumoniae [24] = experiment: Bacteriostatic activity against Klebsiella pneumoniae assessed as detachment of inner membrane from outer membrane by measuring a large void at 8 times MIC in full muller hinton medium by transmission electron microscopic analysis; assay type: functional, organism-based
Escherichia coli [25] = experiment: Bacteriostatic activity against Escherichia coli assessed as membrane perturbation at 8 times MIC in full muller hinton medium by transmission electron microscopic analysis; assay type: functional, organism-based
Klebsiella pneumoniae [26] = experiment: Bacteriostatic activity against Klebsiella pneumoniae at 8 times MIC in full muller hinton medium by Time-kill assay; assay type: functional, organism-based

Molecule | MIC (Escherichia coli [1]) [µg/mL] | MIC (Pseudomonas aeruginosa [2]) [µg/mL] | MHC [3] [µg/mL] | MIC (Staphylococcus aureus [4]) [µg/mL] | MIC (Acinetobacter baumannii) [µg/mL] | MIC (Pseudomonas aeruginosa [6]) [µg/mL] | MIC (Pseudomonas aeruginosa [7]) [µg/mL] | Activity (rRNA) | MIC (Pseudomonas aeruginosa [9]) [µg/mL] | MIC (Pseudomonas aeruginosa [10]) [µg/mL] | MIC (Pseudomonas aeruginosa [13]) [µg/mL] | MIC (Pseudomonas aeruginosa [18]) [µg/mL] | other results
CC[C@H](C)[C@H](NC(=O)[C@H](CCCNC(=N)N)NC(=O)[C@H](CCCNC(=N)N)NC(=O)[C@@H]1CCCN1C(=O)[C@@H]1CCCN1C(=O)[C@H](CCCNC(=N)N)NC(=O)[C@@H]1CCCN1C(=O)[C@H](CCCNC(=N)N)NC(=O)[C@@H]1CCCN1C(=O)[C@H](CC(C)C)NC(=O)[C@H](Cc1ccc(O)cc1)NC(=O)[C@@H]1CCCN1C(=O)[C@@H]1CCCN1C(=O)C(CCCCN)NC(=O)C(CC(=O)O)NC(=O)C(N)C(C)C)C(=O)N[C@@H](Cc1ccc(O)cc1)C(=O)N[C@@H](CC(N)=O)C(=O)N[C@@H](CCCNC(=N)N)C(N)=O (stereo partly drawn) (H-[ξV][ξD][ξK]PPYLPRPRPPRRIYNR-NH2) | 2 (≈ 0.837 µM) | > 64 | > 1000 | > 64 | 8 (≈ 3.35 µM) |  |  |  |  |  |  |  | 
CCC(C)C(NC(=O)C(CCCNC(=N)N)NC(=O)[C@H](CCCNC(=N)N)NC(=O)[C@@H]1CCCN1C(=O)[C@@H]1CCCN1C(=O)[C@H](CCCNC(=N)N)NC(=O)[C@@H]1CCCN1C(=O)[C@H](CCCNC(=N)N)NC(=O)[C@@H]1CCCN1C(=O)[C@H](CC(C)C)NC(=O)[C@H](Cc1ccc(O)cc1)NC(=O)[C@@H]1CCCN1C(=O)[C@@H]1CCCN1C(=O)C(CCCCN)NC(=O)C(CC(=O)O)NC(=O)C(N)C(C)C)C(=O)NC(Cc1ccc(O)cc1)C(=O)NC(CC(N)=O)C(=O)NC(CCCNC(=N)N)C(N)=O (stereo partly drawn) (H-[ξV][ξD][ξK]PPYLPRPRPPR[ξR][ξI][ξY][ξN][ξR]-NH2) | 1 (≈ 0.418 µM) | > 64 | > 1000 | > 64 | 4 (≈ 1.67 µM) |  |  |  |  |  |  |  | MIC (Escherichia coli [5]): 8 µg/mL (≈ 3.35 µM)
CC[C@H](C)[C@H](NC(=O)[C@H](CCCNC(=N)N)NC(=O)C(CCCNC(=N)N)NC(=O)C1CCCN1C(=O)C1CCCN1C(=O)C(CCCNC(=N)N)NC(=O)C1CCCN1C(=O)C(CCCNC(=N)N)NC(=O)C1CCCN1C(=O)C(CC(C)C)NC(=O)C(Cc1ccc(O)cc1)NC(=O)C1CCCN1C(=O)C1CCCN1C(=O)C(CCCCN)NC(=O)C(CC(=O)O)NC(=O)C(N)C(C)C)C(=O)N[C@@H](Cc1ccc(O)cc1)C(=O)N[C@@H](CC(N)=O)C(=O)N[C@@H](CCCNC(=N)N)C(N)=O (stereo partly drawn) (H-[ξV][ξD][ξK][ξP][ξP][ξY][ξL][ξP][ξR][ξP][ξR][ξP][ξP][ξR]RIYNR-NH2) | 4 (≈ 1.67 µM) | > 64 | > 1000 | > 64 |  | > 64 | > 64 | inactive | > 64 | > 64 | > 64 | > 64 | MIC (Pseudomonas aeruginosa [8]): > 64 µg/mL; MIC (Staphylococcus aureus [11]): > 64 µg/mL; MIC (Klebsiella pneumoniae [12]): > 64 µg/mL; MIC (Pseudomonas aeruginosa [14]): > 16 µg/mL; MIC (Klebsiella pneumoniae [15]): > 64 µg/mL; MIC (Enterobacter cloacae): > 64 µg/mL; MIC (Klebsiella pneumoniae [16]): > 16 µg/mL; MIC (Klebsiella pneumoniae [17]): > 64 µg/mL
H-VDKPPYLPRPRPPRRIYNR-NH2 [ONCOCIN] |  | > 64 | > 1000 | > 64 |  | > 64 | > 64 | Active | > 64 | > 64 | > 64 | > 64 | Activity (Escherichia coli [19]): Active; Activity (Escherichia coli [20]): Active; Activity (Klebsiella pneumoniae [21]): Active; Activity (Escherichia coli [22]): Active; Activity (Klebsiella pneumoniae [23]): Active; Few Membrane Perturbation Observed; Activity (Klebsiella pneumoniae [24]): Active; Activity (Escherichia coli [25]): Active; Few Membrane Perturbation Observed; Activity (Klebsiella pneumoniae [26]): Active
